The target in the assay is T1, Rat brain protein farnesyltransferase (Rattus norvegicus, UniProt Q02293+Q04631).
T1 construct: Rat brain protein farnesyltransferase activity is measured; from tissue; host or cells: rat brain
Kind of assay: % inhibition of farnesylation, scintillation proximity assay with biotin-K Ras B fragment. The class given is biochemical. Particulars: for % inhibition at 1 × 10^-6 M / inhibition at 1 µM: Table 2, 1 × 10^-6 M; for inhibition at 1 µM: read-out: % inhibition at 1 × 10^-6 M; for inhibition at 0.01 µM: read-out: % inhibition at 1 × 10^-8 M; for inhibition at 0.1 µM: read-out: % inhibition at 1 × 10^-7 M. The procedure, abridged:
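Scintillation proximity read-out of farnesylation, using a biotinylated K Ras B fragment (0.1 mM final) in place of biotin-lamin. Enzyme purified from rat brain; results given as % inhibition.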
In general terms: Scintillation proximity formats need no separation of bound from free tracer.

Where a name gives a salt, the structure may show the parent alone. Read-outs that look alike come from different tables or passages of the source. Bounds are passed on as bounds.

T1 sequence (Q02293 whole entry, one chain of several): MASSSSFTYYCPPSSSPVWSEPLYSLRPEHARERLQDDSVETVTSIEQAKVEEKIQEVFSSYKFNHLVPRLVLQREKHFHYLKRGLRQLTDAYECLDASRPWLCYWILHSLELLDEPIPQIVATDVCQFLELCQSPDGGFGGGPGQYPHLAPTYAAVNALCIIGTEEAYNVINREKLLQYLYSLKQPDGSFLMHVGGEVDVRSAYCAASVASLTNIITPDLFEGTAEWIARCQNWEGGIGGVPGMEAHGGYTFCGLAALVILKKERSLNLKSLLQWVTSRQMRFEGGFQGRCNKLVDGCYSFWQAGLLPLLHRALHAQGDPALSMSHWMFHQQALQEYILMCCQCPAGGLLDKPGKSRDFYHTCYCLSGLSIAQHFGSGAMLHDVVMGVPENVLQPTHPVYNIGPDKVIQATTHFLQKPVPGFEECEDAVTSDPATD

For orientation: % inhibition means the percentage by which the read-out fell short of the control. As for `CSCC[C@H](NC(=O)c1ccc(CN(C(CC2CCCCC2)CC2CCCCC2)S(=O)(=O)c2ccccc2)cc1-c1ccccc1C)C(=O)O` [Example 911], the “% inhibition at 1 × 10^-6 M” value came out at 65%.
With `CCCCN(CCCC)C(=O)CNCc1ccc(C(=O)N[C@@H](CCSC)C(=O)O)c(-c2ccccc2C)c1` [Example 912], the “% inhibition at 1 × 10^-7 M” value (Table 3, 1 × 10^-7 M) stood at 85%.
On to `CCCCN(CCCC)C(=O)CN(C)Cc1ccc(C(=O)N[C@@H](CCSC)C(=O)O)c(-c2ccccc2C)c1` [Example 913], for which the “% inhibition at 1 × 10^-7 M” value (Table 3, 1 × 10^-7 M) came out at 89%.
Same read-out and setting: in the case of `CSCC[C@H](NC(=O)c1ccc(CNCC(=O)N(Cc2ccccc2)Cc2ccccc2)cc1-c1ccccc1C)C(=O)O` [Example 914] it was 91%.
With `CCCCS(=O)(=O)N(CCC1CCCCC1)Cc1ccc(C(=O)N[C@@H](CCSC)C(=O)O)c(-c2ccccc2C)c1` [Example 916], the “% inhibition at 1 × 10^-8 M” value (Table 4, 1 × 10^-8 M) amounted to 96%.
`CCCCN(CCCC)Cc1ccc(C(=O)N[C@@H](CCSC)C(=O)O)c(-c2ccccc2C)c1` [Example 917]: under “Table 3, 1 × 10^-7 M”, the “% inhibition at 1 × 10^-7 M” value came out at 78%.
By inhibition is commonly meant the percentage by which the read-out fell short of the control. Consider `CSCC[C@H](NC(=O)c1cc(Cc2ccccc2)c(COCc2ccccc2)cc1-c1ccccc1C)C(=O)O` [Example 923, N-[5-Benzyl-4-benzyloxymethyl-2-(2-methylphenyl)benzoyl]methionine], for which the inhibition at 1 µM stood at 78%.
Still for that read-out and setting: with `CSCC[C@H](NC(=O)c1cc(Cc2ccccc2)c(COCc2ccco2)cc1-c1ccccc1C)C(=O)O` [Example 924] the figure was 77%.
On the same count and under the same terms, in the case of `CSCC[C@H](NC(=O)c1cc(Cc2ccccc2)c(COCCCc2ccccc2)cc1-c1ccccc1C)C(=O)O` [Example 925] it was 87%.
For the compound `CCCCS(=O)(=O)N(CCCc1ccccc1)Cc1ccc(C(=O)N[C@@H](CCSC)C(=O)O)c(-c2ccccc2C)c1` [Example 927], the “% inhibition at 1 × 10^-8 M” value (Table 4, 1 × 10^-8 M) is reported as 74%.
The same measure, in the same setting: with `CCCCN(CCc1ccccc1)Cc1ccc(C(=O)N[C@@H](CCSC)C(=O)O)c(-c2ccccc2C)c1` [Example 928] the figure was 84%.
For `CCCC(CCC)NOCc1ccc(C(=O)N[C@@H](CCSC)C(=O)O)c(-c2ccccc2C)c1` [Example 929], where the note is “Table 3, 1 × 10^-7 M”, the “% inhibition at 1 × 10^-7 M” value worked out at 81%.
`CSCC[C@H](NC(=O)c1ccc(COCc2ccccc2Cl)cc1-c1ccccc1C)C(=O)O` [Example 930, N-[4-(2-chlorobenzyloxymethyl)-2-(2-methylphenyl)benzoyl]methionine lithium salt]: the inhibition at 0.01 µM amounted to 66%.
Turning to `COc1ccccc1COCc1ccc(C(=O)N[C@@H](CCSC)C(=O)O)c(-c2ccccc2C)c1` [Example 931, N-[4-(2-methoxybenzyloxymethyl)-2-(2-methylphenyl)benzoyl]methionine lithium salt], the inhibition at 0.1 µM came out at 98%.
As to `COc1cccc(COCc2ccc(C(=O)N[C@@H](CCSC)C(=O)O)c(-c3ccccc3C)c2)c1` [Example 932, N-[4-(3-methoxybenzyloxymethyl)-2-(2-methylphenyl)benzoyl]methionine lithium salt], the inhibition at 0.01 µM was determined as 60%.
Turning to `CSCC[C@H](NC(=O)c1ccc(COCc2ccc(Cl)cc2)cc1-c1ccccc1C)C(=O)O` [Example 933, N-[4-(4-chlorobenzyloxymethyl)-2-(2-methylphenyl)benzoyl]methionine lithium salt], the inhibition at 0.1 µM was determined as 91%.
As to `CSCC[C@H](NC(=O)c1ccc(COCc2cccc(Cl)c2)cc1-c1ccccc1C)C(=O)O` [Example 934, N-[4-(3-chlorobenzyloxymethyl)-2-(2-methylphenyl)benzoyl]methionine lithium salt], the inhibition at 0.01 µM amounted to 71%.
As to `COc1ccc(COCc2ccc(C(=O)N[C@@H](CCSC)C(=O)O)c(-c3ccccc3C)c2)cc1` [Example 935, N-[4-(4-methoxybenzyloxymethyl)-2-(2-methylphenyl)benzoyl]methionine lithium salt], the inhibition at 0.1 µM is 72%.
Regarding `CSCC[C@H](NC(=O)c1ccc(CNCc2ccccc2)cc1-c1ccccc1)C(=O)O.Cl` [Example 936], the “% inhibition at 1 × 10^-6 M” value amounted to 69%.
Take `COc1ccc(CCOCc2ccc(C(=O)N[C@@H](CCSC)C(=O)O)c(-c3ccccc3C)c2)cc1` [Example 937, N-[4-(2-(4-methoxyphenyl)ethoxymethyl)-2-(2-methylphenylbenzoyl]methioninelithium salt]: the inhibition at 1 µM was found to be 95%.
With `CSCC[C@H](NC(=O)c1ccc(COCc2ccccc2C(C)C)cc1-c1ccccc1C)C(=O)O` [Example 938, N-[4-(2-isopropylbenzyloxymethyl)-2-(2-methylphenyl)benzoyl]methionine lithium salt], the inhibition at 0.01 µM is 61%.
On the same count and under the same terms, in the case of `CSCC[C@H](NC(=O)c1ccc(COCc2cccc(C(C)C)c2)cc1-c1ccccc1C)C(=O)O` [Example 939, N-[4-(3-isopropylbenzyloxymethyl)-2-(2-methylphenyl)benzoyl]methionine lithium salt] it was 72%.
As to `CSCC[C@H](NC(=O)c1ccc(COCc2ccc(C(C)C)cc2)cc1-c1ccccc1C)C(=O)O` [Example 940, N-[4-(4-isopropylbenzyloxymethyl)-2-(2-methylphenyl)benzoyl]methionine lithium salt], the inhibition at 0.1 µM worked out at 92%.
For the compound `CSCC[C@H](NC(=O)c1ccc(COCc2cccc(N(C)C)c2)cc1-c1ccccc1C)C(=O)O` [Example 941, N-[4-(3-N,N-dimethylaminobenzyloxymethyl)-2-(2-methylphenyl)benzoyl]methionine lithium salt], under “Table 3, 1 × 10^-7 M”, the inhibition at 0.1 µM is 90%.
In the case of `CCCCC(CCCC)OCc1ccc(C(=O)N[C@@H](CCSC)C(=O)O)c(-c2ccccc2C)c1` [Example 942, N-[4-(nonan-5-yloxymethyl)-2-(2-methylphenyl)benzoyl]methionine lithium salt], the inhibition at 0.01 µM stood at 58%.
For the compound `CCCCC(Cc1ccccc1Cl)OCc1ccc(C(=O)N[C@@H](CCSC)C(=O)O)c(-c2ccccc2C)c1` (some centres unmarked) [Example 943, N-[4-(1-(2-chlorophenyl)hexan-2-yloxymethyl)-2-(2-methylphenyl)benzoyl]methioninelithium salt], the inhibition at 0.01 µM (Table 4, 1 × 10^-8 M) was found to be 79%.
Consider `CCSC[C@H](CC1CCCCC1)N(C)Cc1ccc(C(=O)N[C@@H](CCSC)C(=O)O)c(-c2ccccc2C)c1` [Example 944], for which the “% inhibition at 1 × 10^-8 M” value (Table 4, 1 × 10^-8 M) amounted to 88%.
In the case of `CCSCC(CC1CCCCC1)N(Cc1ccc(C(=O)N[C@@H](CCSC)C(=O)O)c(-c2ccccc2C)c1)CC(C)C` (some centres unmarked) [Example 945], for the setting “Table 3, 1 × 10^-7 M”, the “% inhibition at 1 × 10^-7 M” value turned out to be 80%.
`CCSC[C@H](CC1CCCCC1)N(C=O)Cc1ccc(C(=O)N[C@@H](CCSC)C(=O)O)c(-c2ccccc2C)c1` [Example 946]: the “% inhibition at 1 × 10^-8 M” value (Table 4, 1 × 10^-8 M) came out at 52%.
On to `CCSC[C@H](CC1CCCCC1)N(Cc1ccc(C(=O)N[C@@H](CCSC)C(=O)O)c(-c2ccccc2C)c1)C(C)=O` [Example 947], for which, for the setting “Table 3, 1 × 10^-7 M”, the “% inhibition at 1 × 10^-7 M” value was determined as 79%.
On the same count and under the same terms, with `CCSC[C@H](CC1CCCCC1)N(Cc1ccc(C(=O)N[C@@H](CCSC)C(=O)O)c(-c2ccccc2C)c1)C(=O)OC(C)(C)C` [Example 948] the figure was 75%; with `CCSC[C@H](CC1CCCCC1)N(Cc1ccc(C(=O)N[C@@H](CCSC)C(=O)O)c(-c2ccccc2C)c1)C(=O)c1ccccc1` [Example 949], 57%.
Same read-out and setting: with `CCCCS(=O)(=O)N(Cc1ccc(C(=O)N[C@@H](CCSC)C(=O)O)c(-c2ccccc2C)c1)[C@H](CSCC)CC1CCCCC1` [Example 950] the figure was 71%; with `CCSC[C@H](CC1CCCCC1)N(Cc1ccc(C(=O)N[C@@H](CCSC)C(=O)O)c(-c2ccccc2C)c1)S(=O)(=O)c1ccccc1` [Example 951], 71%.
Regarding `CSCC[C@H](NC(=O)c1ccc(NC(=O)[C@@H]2C[C@@H](O)CN2)cc1-c1ccccc1)C(=O)O` [Example 952], the “% inhibition at 1 × 10^-5 M” value (Table 1, 1 × 10^-5 M) is above 50%.
As for `CSCC[C@H](NC(=O)c1ccc(NC[C@@H]2C[C@H](S)CN2)cc1-c1ccccc1)C(=O)O` [Example 959], the “% inhibition at 1 × 10^-7 M” value (Table 3, 1 × 10^-7 M) was above 50%.
In the case of `CSCC[C@H](NC(=O)c1ccc(NC[C@H]2NCC[C@H]2S)cc1-c1ccccc1)C(=O)O` [Example 960], the “% inhibition at 1 × 10^-8 M” value (Table 4, 1 × 10^-8 M) is above 50%.
`CSCC[C@H](NC(=O)c1ccc(NC(=O)OCCCl)cc1-c1ccccc1)C(=O)O` [Example 979]: the “% inhibition at 1 × 10^-6 M” value is listed as 26%.
Still for that read-out and setting: in the case of `CSCC[C@H](NC(=O)c1ccc(CN(C)C(C)(C)Cc2ccccc2)cc1-c1ccccc1C)C(=O)O` [Example 982] it was 64%.
In the case of `CCCCC(OCc1ccc(C(=O)N[C@@H](CCSC)C(=O)O)c(-c2ccccc2C)c1)c1cncs1` (some centres unmarked) [Example 985], the inhibition at 0.01 µM (Table 4, 1 × 10^-8 M) is 89%.
For the compound `CSCC[C@H](NC(=O)c1ccc(CN(CCC2CCCCC2)Cc2cncs2)cc1-c1ccccc1C)C(=O)O` [Example 986], the “% inhibition at 1 × 10^-8 M” value (Table 4, 1 × 10^-8 M) was 95%.
On to `CSCC[C@H](NC(=O)c1ccc(COC2CCN(Cc3ccccc3)C2)cc1-c1ccccc1C)C(=O)O` (some centres unmarked) [Example 987, N-[4-(1-benzylpyrrolidin-3-oxymethyl)-2-(2-methylphenyl)benzoyl]methionine], for which the inhibition at 1 µM is 93%.
Take `CSCC[C@H](NC(=O)c1ccc(CN2CCC(OCc3ccccc3)C2)cc1-c1ccccc1C)C(=O)O` (some centres unmarked) [Example 988]: the “% inhibition at 1 × 10^-6 M” value came out at 92%.
Still for that read-out and setting: with `CSCC[C@H](NC(=O)c1ccc(CN2CCCC(OCc3ccccc3)C2)cc1-c1ccccc1C)C(=O)O` (some centres unmarked) [Example 989] the figure was 88%.
Regarding `CSCC[C@H](NC(=O)c1ccc(CN2CCCC(OCC3CCCCC3)C2)cc1-c1ccccc1C)C(=O)O` (some centres unmarked) [Example 990], where the note is “Table 3, 1 × 10^-7 M”, the “% inhibition at 1 × 10^-7 M” value came out at 84%.
On to `CSCC[C@H](NC(=O)c1ccc(CN2CCC[C@H]2COc2ccccc2)cc1-c1ccccc1C)C(=O)O` [Example 991], for which, where the note is “Table 4, 1 × 10^-8 M”, the “% inhibition at 1 × 10^-8 M” value came out at 69%.
The same measure, in the same setting: with `CSCC[C@H](NC(=O)c1ccc(CN2CCC[C@H]2COCC2CCCCC2)cc1-c1ccccc1C)C(=O)O` [Example 992] the figure was 93%.

The values above are taken from patent US6204293A, “Inhibitors of protein isoprenyl transferases” (University of Pittsburgh, priority 1998, dated 2001).
